{
  "source": "patent US20240407371A1",
  "about": "“METHOD FOR THE KILLING, INACTIVATING, OR INHIBITING OF HARMFUL BLUE-GREEN ALGAE OR ALGAE CAPABLE OF CAUSING HARMFUL ALGAL BLOOM (HAB)” (priority 2021, published 2024)",
  "tested_on": "Saprolegnia diclina",
  "experiment": "Atlantic salmon eggs challenged with Saprolegnia diclina trojan eggs, immersion baths",
  "format": "in vivo, Atlantic salmon (Salmo solar L.) eggs",
  "conditions": "1665 ppm, 15 min bath daily",
  "data": [
    {"smiles": "C=O", "note": "[Formalin]", "values": [
      {"measurement": "signs of saprolegniosis", "value": "did not suffer any sign of saprolegniosis"},
      {"measurement": "Average Number of Eggs Entangled", "setting": "Treatment E, 10 days", "value": 0.00},
      {"measurement": "Average Percent Eggs Entangled", "setting": "Treatment E, 10 days", "value": 0.00}
    ]}
  ]
}
